The source of these data is PubChem BioAssay AID2823 (Broad Institute, 2010).

Activity calls are given as the source filed them. How the calls were made is not given here.

The target in the assay is RanGTP-importin-beta complex (human Ran / KPNB1). Briefly: disruptors of RanGTP/KPNB1 binding – biochemical, FRET, CFP/YFP, cell-free homogeneous, confirmation (AID 2823). The note with it: CFP-Ran/YFP-importin-beta FRET ratio.
Take `CN(C)S(=O)(=O)c1ccc(N2CCCC2)c(C(=O)NC(c2ccccc2)c2ccccc2)c1`: the IC50 (commonly the concentration that inhibits the measured activity by half) is > 50 µM (inactive). The result for `CCOC(=O)/C(C#N)=C\c1ccc(N2CCN(C)CC2)cc1` reads 15 µM; that for `N#CC1=C(N)Oc2cc3c(cc2C1c1ccc(Cl)cc1)OCO3` (stereo unspecified), > 50 µM (inactive); that for `COc1cc(SC)ccc1C(=O)Nc1nc(C)cs1`, > 50 µM (inactive). In the case of `CC(=O)Nc1cccc(C(=O)N/N=C/c2ccc(F)cc2)c1` it was > 50 µM (inactive); in that of `COc1cc2c(cc1OC)CN(Cc1cc(=O)oc3cc(C)c(Cl)cc13)CC2`, > 50 µM (inactive); in that of `S=c1[nH]c2ccc3ccccc3c2[nH]1`, > 50 µM (inactive). For `Oc1c(CN2CCN(c3ccc(F)cc3)CC2)cc(Cl)c2cccnc12`, the IC50 was > 50 µM (inactive). The result for `CCOc1cc(NS(=O)(=O)c2ccc(NC(C)=O)cc2)c(OCC)cc1NC(=O)C(C)C` reads > 50 µM (inactive).

As for `Nc1nc2nc(-c3ccc(OCc4ccccc4)cc3)cc(C(F)(F)F)n2n1`, the IC50 is 4.09 µM. For the compound `Cc1ccccc1-n1c(=O)cc(N2CCC3(CC2)OCCO3)[nH]c1=O`, the IC50 was > 50 µM (inactive). `N#Cc1ccc(/C=C(\C(=O)C(=O)O)c2ccc3ccccc3n2)cc1`: the IC50 is 12 µM. In the case of `Cc1ccc(NC(=O)Cn2nc(C(F)(F)F)c3c2CCC3)cc1` it was > 50 µM (inactive); in that of `c1ccc2c(c1)nc(NCC1CCCO1)c1nnnn12` (stereo unspecified), 30.3 µM.

As to `CC(C)CCN(CCC(C)C)CC(O)Cn1c2ccccc2c(=O)c2ccccc21` (stereo unspecified), the IC50 was 6.71 µM.

For `C=CCn1c(SCC(=O)Nc2sccc2C(N)=O)nc2ccccc2c1=O`, the IC50 was > 50 µM (inactive).

Turning to `COc1ccc(-c2cc(C(=O)O)nc3ccc4ccccc4c23)cc1OC`, the IC50 was > 50 µM (inactive). As for `Cc1cc(C)c(S(=O)(=O)N(C)CC(N)=O)c(C)c1`, the IC50 is > 50 µM (inactive).

`O=C(c1ccccc1)c1cc2ccc(O)cc2oc1=O`: the IC50 is 13 µM. The result for `CC(=O)N1c2ccc(S(=O)(=O)N3CCC(C(=O)Nc4cccc(Cl)c4)CC3)cc2CC1C` (stereo unspecified) reads > 50 µM (inactive); that for `c1ccc2sc(NC3=NCN(CCN4CCOCC4)CN3)nc2c1`, > 50 µM (inactive). In the case of `CCCCOc1ccc(OCCSc2nc3ccccc3n2CC(=O)O)cc1` it was > 50 µM (inactive); in that of `Cn1c(=O)cc(OCCCC(=O)NCc2ccccn2)c2ccccc21`, > 50 µM (inactive). In the case of `CC(=O)c1sc2nc(C)c3c(c2c1N)CCCC3` it was 15.3 µM. Turning to `CC(C)CN(Cc1c(O)ccc2ccccc12)CC(C)C`, the IC50 is > 50 µM (inactive). For the compound `CN1CCN(c2cc(=O)n(-c3ccc(Cl)cc3)c(=O)[nH]2)CC1`, the IC50 is > 50 µM (inactive). The result for `O=C(Nc1ccc(OC(F)(F)F)cc1)c1ccc2nc[nH]c2c1` reads > 50 µM (inactive). The result for `CC#CC(=O)N1CCC(C(=O)Nc2ccc(Oc3ccccc3)nc2)CC1` reads > 50 µM (inactive); that for `COc1cccc(NC(=O)Nc2ccc3c(c2)N(C)C(=O)CS3)c1`, > 50 µM (inactive).

With `c1ccc(-n2nnnc2-c2cnc(-c3cccnc3)nc2-c2cccs2)cc1`, the IC50 is > 50 µM (inactive). Consider `Cc1cc(C(=O)O)ccc1-c1ccc(/C=C2\NC(=O)N(Cc3ccccc3Cl)C2=O)o1`, for which the IC50 was 10.7 µM. In the case of `Cc1ccc2nc(N3CCN(C(=O)c4cccs4)CC3)c(C#N)cc2c1` it was 17.7 µM; in that of `CC(=O)c1ccc(-c2ccc(Cn3c(C)nc4cc(N)c(C)nc43)cc2)cc1`, > 50 µM (inactive).

Consider `CCOC(=O)c1ccccc1NC(=O)COC(=O)C(CCSC)NC(=O)COc1ccccc1` (stereo unspecified), for which the IC50 was > 50 µM (inactive). In the case of `C=CCOc1c(Br)cc(CNc2ccc(NC(=O)C(C)C)c(OC)c2)cc1OC` it was > 50 µM (inactive).

As to `Cc1ccc(Nc2nc(N)nc(CC#N)n2)cc1`, the IC50 is > 50 µM (inactive). In the case of `Oc1nc(Nc2ccccc2)sc1/C=C1\C=Nc2ccccc21` it was > 50 µM (inactive); in that of `CC1(C)CC(=O)C=C(Nc2ccc(S(N)(=O)=O)cc2)C1`, > 50 µM (inactive). As to `COc1ccc(C(=O)NCCNc2nc3c(C)cccc3cc2C#N)cc1`, the IC50 is 24.4 µM. In the case of `COc1ccc(-c2csc3ncnc(N4CCN(c5ccc(OC)cc5)CC4)c23)cc1` it was > 50 µM (inactive). For the compound `O=C(Cn1nnc(-c2ccncc2)n1)NCCc1ccccc1`, the IC50 was > 50 µM (inactive).

For the compound `COCCN1C=C(C(=O)OC)C(c2cc(Br)c(OC)c(OC)c2)C(C(=O)OC)=C1`, the 50% inhibitory concentration (IC50) is 21.4 µM. The result for `COC(=O)Cn1c(=O)c2c(nc3n2CCCN3CCc2ccccc2)n(C)c1=O` reads > 50 µM (inactive); that for `COc1ccccc1C1C(C(N)=O)=C(C)Nc2ncnn21` (stereo unspecified), > 50 µM (inactive); that for `CCOC(=O)C1=C(C)NC2=C(C(=O)C(C(=O)OCC)C(c3cccc(OC)c3)C2)C1c1ccccn1` (stereo unspecified), 22.2 µM. In the case of `COc1ccc(CCNc2c3ccccc3nc3ccccc23)cc1OC` it was 12.5 µM. Take `C=CCn1c(C)c(C(C)=O)c(N2CCN(C(c3ccccc3)c3ccccc3)CC2)nc1=S`: the IC50 is > 50 µM (inactive). Turning to `Cc1ccc(Nc2nc(N)[nH]c(=O)c2N=O)cc1`, the IC50 is 16.1 µM. In the case of `Cc1c(C#N)c(NC(=O)CCl)n(Cc2ccccc2)c1C`, the IC50 was > 50 µM (inactive). The result for `Cc1ccc(OCC(=O)N2CCCCCC2)c(C)c1` reads > 50 µM (inactive). In the case of `Cc1cc(/C=C2\C(=O)NC(=O)N(c3ccc(F)cc3)C2=O)c(C)n1-c1ccc(C(=O)O)cc1`, the IC50 was > 50 µM (inactive). With `COc1ccc(CCNC(=O)c2cc3c(=O)n4ccccc4nc3n(CCCN3CCOCC3)c2=N)cc1`, the IC50 was 17.9 µM. The result for `CCOC(=O)C1CCN(c2cc(=O)n(C3CCCCC3)c(=O)[nH]2)CC1` reads > 50 µM (inactive); that for `OCCN1CCN(c2nc(-c3ccccc3)c3cc(Cl)ccc3n2)CC1`, 22.2 µM; that for `Cc1ccc(N2CC(=O)N(NC(=O)c3sc4nc(C)cc(C)c4c3N)CC2=O)cc1`, > 50 µM (inactive). In the case of `N#C/C(=C\c1ccc(N2CCOCC2)o1)C(=O)NC1CCCCC1`, the IC50 is 2.76 µM. In the case of `Cc1c(N=Cc2c(O)n(Cc3ccco3)c(=O)c3ccccc23)c(=O)n(-c2ccccc2)n1C` it was > 50 µM (inactive). In the case of `COC(=O)CCC(=O)OC1(C)C(=O)C=C2C=C(C3CC3)N(Cc3ccc(OC)cc3)C=C2C1=O` (stereo unspecified) it was 26.7 µM; in that of `NS(=O)(=O)c1cccc(NC(=O)CCSc2ccc(Cl)cc2)c1`, > 50 µM (inactive); in that of `O=C1/C(=C/c2cccs2)Sc2ccccc21`, > 50 µM (inactive). With `CC(C)c1ccccc1NC(=O)C1C2C=CC(C2)C1C(=O)O` (stereo unspecified), the IC50 is > 50 µM (inactive).

In the case of `CN(C)CCCn1c(N)c(C#N)c2nc(C#N)c(C#N)nc21`, the IC50 was 21.9 µM. As to `COc1ccc(/C=C2\SC(=S)N(CC(=O)OCC(=O)Nc3ccc(C)cc3Cl)C2=O)cc1`, the IC50 was > 50 µM (inactive). In the case of `Cc1sc2ncn(CC(=O)NCCCC(=O)N3CCN(Cc4ccc5c(c4)OCO5)CC3)c(=O)c2c1C` it was > 50 µM (inactive); in that of `CN(C)C=NC(=O)c1cc(C(=O)c2ccc(C(C)(C)C)cc2)c[nH]1`, > 50 µM (inactive); in that of `COc1ccc(NC(=O)/C(C#N)=C\c2ccc(N3CCOCC3)o2)cc1`, > 50 µM (inactive). In the case of `CC(NCc1cccs1)C(=O)NC1CCCCC1` (stereo unspecified) it was > 50 µM (inactive); in that of `CNc1cc(F)nc(F)n1`, 18.4 µM.

`CC1(C)CNC(=O)C=C(c2ccccc2)C1`: the IC50 was > 50 µM (inactive).

With `CN(C)c1nc(-c2ccccc2)cc(C(F)(F)F)c1C#N`, the IC50 is 10.7 µM.

`COCc1cc(CN2CCN(C)CC2)c(O)c2ncccc12`: the IC50 is > 50 µM (inactive).

On to `O=c1nc(-c2ccccc2Cl)c2cc(F)ccc2[nH]1`, for which the IC50 was > 50 µM (inactive). As for `Cc1cccc(C(=O)Nc2sc(C)c(-c3ccccc3)c2C#N)c1`, the IC50 was > 50 µM (inactive).

For `CCCCc1c(C)c(C#N)c2nc3ccccc3n2c1Nc1c(C)n(C)n(-c2ccccc2)c1=O`, the IC50 is 45 µM.

`COc1ccc2cc(CCN3C(=O)c4ccccc4C3=O)c(=O)[nH]c2c1`: the IC50 was > 50 µM (inactive).

Turning to `CC1=C(C(=O)OC(C)C)C(c2cccnc2)C2=C(CC(C)(C)CC2=O)N1` (stereo unspecified), the IC50 is 20.5 µM. The result for `O=C(c1cc2ccccc2oc1=O)N1CCN(CCc2ccccc2)CC1` reads 6.7 µM; that for `CCCn1c(O)c(C=Nc2ccccc2)sc1=S`, 39.4 µM; that for `Cc1onc(-c2ccccc2)c1C(=O)Nc1cccc2nsnc12`, 33.3 µM.

Consider `Cn1nnnc1SCC(=O)Nc1nn(-c2ccccc2)nc1C(N)=O`, for which the IC50 is > 50 µM (inactive).

For the compound `COc1cc(OC)cc(-c2cc3nc(C)cc(N4CCN(C(=O)c5ccco5)CC4)n3n2)c1`, the IC50 was 4.91 µM. In the case of `O=C(NNc1c2ccccc2nc2ccccc12)C12CC3CC(CC(C3)C1)C2` it was > 50 µM (inactive).

With `CCN1C2=C(C(=O)CCC2)C(c2ccc(O)c(Br)c2)C2=C1CCCC2=O`, the IC50 was 7.86 µM.

`Cc1ccc(S(=O)(=O)NCCN(CCNS(=O)(=O)c2ccc(C)cc2)S(C)(=O)=O)cc1`: the IC50 is > 50 µM (inactive). For the compound `Cc1nc2ccc(NC(=O)c3nn(CC(C)C)c(=O)c4ccccc34)cc2s1`, the IC50 was > 50 µM (inactive).

In the case of `COc1ccc(CNCc2c(O)c(Cl)cc3c(C)c(C)c(=O)oc23)c(OC)c1`, the IC50 was 6.06 µM. `Cc1ccc2cc(C#N)c(N3CCCN(C(=O)C4CCCO4)CC3)nc2c1` (stereo unspecified): the IC50 was 20.5 µM. In the case of `O=C1C=C(Nc2ccc(Cl)cc2Cl)CC(c2ccco2)C1` (stereo unspecified) it was > 50 µM (inactive); in that of `Fc1ccccc1N1CC(c2ccccc2)C(c2cccs2)=N1` (stereo unspecified), 20.8 µM; in that of `O=C(NCc1ccccc1C(F)(F)F)C1CC(c2ccc(C(F)(F)F)cc2)=NO1` (stereo unspecified), > 50 µM (inactive).

As for `CN(C)/C=N/c1nc2nccc(-c3cccs3)n2n1`, the IC50 was 38.5 µM.
